Results: publication PMC7817263, “Analysis of the Anti-Inflammatory and Analgesic Mechanism of Shiyifang Vinum Based on Network Pharmacology” (Evidence-based Complementary and Alternative Medicine : eCAM, 2021)

biological target: T1, COX-2 (Homo sapiens, UniProt P35354); experiment: COX-2 inhibitor screening kit, in vitro enzyme activity test (fluorescence); assay type: biochemical; conditions: inhibition of COX-2 enzyme activity, probit regression
T1 construct: purchased Beyotime Biotechnology (Shanghai, China)
T1 sequence (P35354 18-604): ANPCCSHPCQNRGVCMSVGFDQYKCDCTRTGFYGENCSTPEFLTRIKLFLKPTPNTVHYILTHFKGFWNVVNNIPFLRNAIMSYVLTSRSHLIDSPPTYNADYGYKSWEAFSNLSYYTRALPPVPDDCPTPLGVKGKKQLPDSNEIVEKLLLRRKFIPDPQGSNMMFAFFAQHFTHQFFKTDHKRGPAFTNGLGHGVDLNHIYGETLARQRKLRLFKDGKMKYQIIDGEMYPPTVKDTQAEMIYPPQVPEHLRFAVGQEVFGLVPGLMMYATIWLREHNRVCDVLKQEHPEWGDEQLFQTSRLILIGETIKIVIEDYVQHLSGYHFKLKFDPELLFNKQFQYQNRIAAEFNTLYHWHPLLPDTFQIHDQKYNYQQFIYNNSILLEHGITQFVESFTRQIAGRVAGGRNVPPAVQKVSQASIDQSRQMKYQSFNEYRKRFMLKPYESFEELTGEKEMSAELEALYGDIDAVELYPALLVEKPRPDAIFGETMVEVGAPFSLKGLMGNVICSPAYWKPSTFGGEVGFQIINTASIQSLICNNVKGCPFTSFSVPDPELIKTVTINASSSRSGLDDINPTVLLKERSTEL
Method: The COX-2 inhibitory activities of four monomer compounds and Shiyifang Vinum were detected with the COX-2 inhibitor screening kit. The blank control, 100% enzyme activity control, positive inhibition control, and sample wells were prepared, with three repeat wells in each group.

| IC50 [µM] | Structure (SMILES) |
| --- | --- |
| 30.7 | O=c1c(O)c(-c2ccc(O)cc2)oc2cc(O)cc(O)c12 [Kaempferol, kaempferol] |
| 10.8 | O=c1cc(-c2ccc(O)c(O)c2)oc2cc(O)cc(O)c12 [Luteolin, luteolin] |
| 3.96 | O=c1c(O)c(-c2ccc(O)c(O)c2)oc2cc(O)cc(O)c12 [Quercetin, quercetin] |
